# Experimental data taken from ChEMBL document CHEMBL1201862, “PubChem BioAssay data set” (2004).
#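 Each compound was tested at five concentrations against cells in 96-well plates for 48 hours. GI50 = concentration required for 50% inhibition of growth.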 Active and inactive are the calls of the source. No stated cut-off is given here; in the data, active = GI50 up to about 1.1 µM and inactive = higher.
# How the values were obtained:
# Assay in all cases: NCI tumour cell line growth inhibition, 48 h
# HCC 2998 = tested on: HCC 2998
# SNB-75 = tested on: SNB-75
# MDA-N = tested on: MDA-N
# NCI-H23 = tested on: NCI-H23
# SK-MEL-5 = tested on: SK-MEL-5
# SF-295 = tested on: SF-295
# MDA-MB-435 = tested on: MDA-MB-435
# SF-268 = tested on: SF-268
# HCT-116 = tested on: HCT-116
# SN12C = tested on: SN12C
# Hs-578T = tested on: Hs-578T
# CCRF-CEM = tested on: CCRF-CEM
# RPMI-8226 = tested on: RPMI-8226
# UACC-62 = tested on: UACC-62
# SR = tested on: SR
# U-251 = tested on: U-251
# SK-MEL-2 = tested on: SK-MEL-2
# KM-20L2 = tested on: KM-20L2
# DMS-114 = tested on: DMS-114
SMILES,GI50 (HCC 2998),GI50 (SNB-75),GI50 (MDA-N),GI50 (NCI-H23),GI50 (SK-MEL-5),GI50 (SF-295),GI50 (MDA-MB-435),GI50 (SF-268),GI50 (HCT-116),GI50 (SN12C),GI50 (Hs-578T),GI50 (CCRF-CEM),GI50 (RPMI-8226),GI50 (UACC-62),GI50 (SR),GI50 (U-251),GI50 (SK-MEL-2),GI50 (KM-20L2),GI50 (DMS-114)
CCOC(=O)c1cccc(/N=N/Nc2cccc(C(=O)OCC)c2)c1,> 100 µM (inactive),14.6 µM (inactive),5.66 µM (inactive),43.2 µM (inactive),23.4 µM (inactive),15.6 µM (inactive),16.4 µM (inactive),27 µM (inactive),31.9 µM (inactive),30.1 µM (inactive),30.8 µM (inactive),> 100 µM (inactive),> 100 µM (inactive),71.8 µM (inactive),1.09 µM (active),20.1 µM (inactive),34.2 µM (inactive),–,–
COc1cc(OC)c2nc3occc3c(OC)c2c1,41.6 µM (inactive),67.8 µM (inactive),> 100 µM (inactive),> 100 µM (inactive),45.7 µM (inactive),62.8 µM (inactive),> 100 µM (inactive),> 100 µM (inactive),76 µM (inactive),71.1 µM (inactive),> 100 µM (inactive),> 100 µM (inactive),27.7 µM (inactive),> 100 µM (inactive),55.7 µM (inactive),> 100 µM (inactive),> 100 µM (inactive),–,–
N=C(N)N/N=C(\c1ccc(F)cc1)c1ccc(C(F)(F)F)cc1,0.542 µM (active),1.75 µM (inactive),0.0748 µM (active),0.382 µM (active),0.466 µM (active),0.264 µM (active),0.075 µM (active),0.593 µM (active),0.104 µM (active),0.64 µM (active),0.36 µM (active),0.329 µM (active),0.376 µM (active),0.282 µM (active),0.284 µM (active),0.473 µM (active),1.24 µM (inactive),–,–
Sc1nnc(-c2ccccc2)n1/N=C\c1ccc(-c2ccc(Cl)cc2)o1,–,> 100 µM (inactive),–,> 100 µM (inactive),–,> 100 µM (inactive),–,> 100 µM (inactive),> 100 µM (inactive),–,–,–,> 100 µM (inactive),> 100 µM (inactive),> 100 µM (inactive),> 100 µM (inactive),–,> 100 µM (inactive),–
CCOc1cccc2cccnc12,> 100 µM (inactive),> 100 µM (inactive),–,> 100 µM (inactive),> 100 µM (inactive),> 100 µM (inactive),–,> 100 µM (inactive),> 100 µM (inactive),> 100 µM (inactive),–,> 100 µM (inactive),> 100 µM (inactive),> 100 µM (inactive),–,–,–,> 100 µM (inactive),> 100 µM (inactive)
COc1cc2c(cc1OC)C(=O)/C(=C/c1ccccc1)C2,78.3 µM (inactive),> 39.4 µM (inactive),> 93.8 µM (inactive),> 74.8 µM (inactive),37.2 µM (inactive),76.9 µM (inactive),> 87.7 µM (inactive),73.3 µM (inactive),48 µM (inactive),> 100 µM (inactive),> 100 µM (inactive),27.5 µM (inactive),19.1 µM (inactive),30.5 µM (inactive),29.4 µM (inactive),> 100 µM (inactive),> 100 µM (inactive),–,–
O=c1[nH]nc(-c2ccccc2)n1/N=C\CC/C=N\n1c(-c2ccccc2)n[nH]c1=O,40.7 µM (inactive),> 69.3 µM (inactive),20 µM (inactive),14.3 µM (inactive),21.6 µM (inactive),47.3 µM (inactive),22.7 µM (inactive),26.1 µM (inactive),24.2 µM (inactive),20.3 µM (inactive),24.9 µM (inactive),> 10 µM (inactive),25.3 µM (inactive),17.6 µM (inactive),34 µM (inactive),40.6 µM (inactive),20.2 µM (inactive),–,–
CCCCCC(=O)NC(=S)Nc1nnn[nH]1,> 100 µM (inactive),> 100 µM (inactive),> 100 µM (inactive),> 100 µM (inactive),> 100 µM (inactive),> 100 µM (inactive),> 100 µM (inactive),> 100 µM (inactive),> 100 µM (inactive),> 100 µM (inactive),> 100 µM (inactive),> 100 µM (inactive),> 100 µM (inactive),> 100 µM (inactive),> 100 µM (inactive),> 100 µM (inactive),> 100 µM (inactive),–,–
NC(=O)c1nnc2cc(F)c(F)cc2c1N,> 100 µM (inactive),16.7 µM (inactive),> 100 µM (inactive),23.3 µM (inactive),87.1 µM (inactive),27.3 µM (inactive),97.9 µM (inactive),21.6 µM (inactive),72.1 µM (inactive),84.9 µM (inactive),26.7 µM (inactive),> 100 µM (inactive),> 100 µM (inactive),31.3 µM (inactive),> 100 µM (inactive),22.3 µM (inactive),15 µM (inactive),–,–
C[C@H](C(O)CC(=O)C(C)(C)O)[C@H]1CC[C@@]2(C)[C@@H]3CC[C@H]4C(C)(C)[C@@H](OC5OC(COC6OC(CO)C(O)C(O)C6O)C(O)C(O)C5O)CC[C@]4(C)C3=CC[C@]12C (some centres undefined),> 100 µM (inactive),> 100 µM (inactive),> 100 µM (inactive),> 100 µM (inactive),> 100 µM (inactive),> 100 µM (inactive),> 100 µM (inactive),> 100 µM (inactive),> 100 µM (inactive),> 100 µM (inactive),> 100 µM (inactive),> 100 µM (inactive),> 100 µM (inactive),> 100 µM (inactive),> 100 µM (inactive),> 100 µM (inactive),> 100 µM (inactive),–,–
OB(O)c1ccccc1C#Cc1ccccc1B(O)O,17.7 µM (inactive),19 µM (inactive),21.2 µM (inactive),24 µM (inactive),14.8 µM (inactive),22.9 µM (inactive),19.7 µM (inactive),11.5 µM (inactive),18.1 µM (inactive),23.6 µM (inactive),14.6 µM (inactive),20.1 µM (inactive),20.6 µM (inactive),14.5 µM (inactive),19.5 µM (inactive),19.2 µM (inactive),11.5 µM (inactive),–,–
Cn1c(-c2cccs2)cc(-c2cccs2)c1-c1ccsc1,> 100 µM (inactive),> 100 µM (inactive),> 100 µM (inactive),> 100 µM (inactive),27.2 µM (inactive),> 100 µM (inactive),> 100 µM (inactive),> 100 µM (inactive),23.3 µM (inactive),> 100 µM (inactive),> 100 µM (inactive),> 100 µM (inactive),> 100 µM (inactive),> 100 µM (inactive),48.2 µM (inactive),> 100 µM (inactive),34.1 µM (inactive),–,–
COC(=O)C1=CC2CCCC1(O)C(C(C)=O)C2 (centres undefined),> 100 µM (inactive),24.4 µM (inactive),97.9 µM (inactive),> 77.1 µM (inactive),> 100 µM (inactive),> 67.5 µM (inactive),> 100 µM (inactive),> 21.7 µM (inactive),62.1 µM (inactive),> 100 µM (inactive),> 100 µM (inactive),21.1 µM (inactive),25.1 µM (inactive),> 94.4 µM (inactive),31.3 µM (inactive),63.2 µM (inactive),> 68.7 µM (inactive),–,–
O=c1[nH]/c(=C/c2ccc(OCc3ccccc3)cn2)c(=O)[nH]/c1=C/c1ccc(O)cc1,0.991 µM (active),0.762 µM (active),0.129 µM (active),1.16 µM (inactive),2.07 µM (inactive),8.85 µM (inactive),0.109 µM (active),1.04 µM (active),1.08 µM (active),1.04 µM (active),1.67 µM (inactive),0.0454 µM (active),0.766 µM (active),1.58 µM (inactive),1.4 µM (inactive),0.719 µM (active),1.33 µM (inactive),–,–
COC1C(O)C(C)OC(O[C@H]2CC[C@@]3(C)C(CC[C@@H]4[C@@H]3CC[C@]3(C)[C@@H](C(C)OC5OC(CO)C(O)C(O)C5O)CC[C@]43O)C2)C1O (some centres undefined),> 25 µM (inactive),> 25 µM (inactive),> 25 µM (inactive),> 25 µM (inactive),> 25 µM (inactive),> 25 µM (inactive),> 25 µM (inactive),> 25 µM (inactive),> 25 µM (inactive),> 25 µM (inactive),> 25 µM (inactive),> 25 µM (inactive),> 25 µM (inactive),> 25 µM (inactive),> 25 µM (inactive),> 25 µM (inactive),> 25 µM (inactive),–,–
O=C(O)Cc1cccc2c(=O)c3cccc([N+](=O)[O-])c3oc12,> 100 µM (inactive),> 100 µM (inactive),> 100 µM (inactive),> 100 µM (inactive),> 100 µM (inactive),> 100 µM (inactive),> 100 µM (inactive),> 100 µM (inactive),> 100 µM (inactive),> 100 µM (inactive),> 100 µM (inactive),> 100 µM (inactive),> 100 µM (inactive),> 100 µM (inactive),> 100 µM (inactive),> 100 µM (inactive),> 100 µM (inactive),–,–
C=C[C@@]1(C)CCC2(O)C(CCC3C2(C)CCC[C@@]3(C)COC(=O)CC(=O)OC)C1 (some centres undefined),61.4 µM (inactive),19.9 µM (inactive),–,20.6 µM (inactive),18 µM (inactive),–,–,22.5 µM (inactive),18 µM (inactive),19.9 µM (inactive),–,32.7 µM (inactive),19.8 µM (inactive),17.2 µM (inactive),22.2 µM (inactive),17.9 µM (inactive),–,18.7 µM (inactive),–
